The source made the active and inactive calls. The calls are words filed in the database; no cut-off is given here.
Assays:
[1] = system: Mycobacterium tuberculosis; assay: Antimycobacterial activity against Mycobacterium tuberculosis H37Rv expressing Lux assessed as reduction in growth measured after 3 weeks by bioluminescence assay; format: functional, organism-based; settings: 504 h
[2] = Cytotoxicity against human macrophages assessed as cell death at 1.25 to 40 uM after 48 hrs by TMRE-based assay; settings: macrophage
[3] = system: Mycobacterium tuberculosis; assay: Antimycobacterial activity against Mycobacterium tuberculosis H37Rv assessed as reduction in growth measured at <= 2.5 uM after 72 hrs by CFU assay; format: functional
[4] = system: Mycobacterium tuberculosis; assay: Antimycobacterial activity against Mycobacterium tuberculosis H37Rv expressing Lux infected in human macrophages assessed as reduction in growth measured at <= 2.5 uM after 72 hrs by bioluminescence assay; format: functional, organism-based
[5] = system: Mycobacterium tuberculosis; assay: Antimycobacterial activity against Mycobacterium tuberculosis H37Rv expressing Lux infected in human macrophages assessed as […] reduction in growth measured at 5 uM after 48 hrs by bioluminescence assay; format: functional, organism-based
[6] = Cytotoxicity against human macrophages assessed as cell death at > 10 uM by TMRE-based assay; settings: macrophage
[7] = system: Mycobacterium tuberculosis; assay: Antimycobacterial activity against Mycobacterium tuberculosis H37Rv expressing Lux assessed as reduction in growth measured at 5 uM after 3 weeks by bioluminescence assay; format: functional, organism-based
[8] = Cytotoxicity against human macrophages assessed as cell death at 20 uM by TMRE-based assay; set-up: species or system Macrophage; settings: read-out: INH
[9] = system: Mycobacterium tuberculosis; assay: Antimycobacterial activity against Mycobacterium tuberculosis H37Rv expressing Lux infected in human macrophages assessed as reduction in growth measured at 5 to 20 uM after 3 weeks by bioluminescence assay; format: functional, organism-based
[10] = system: Mycobacterium tuberculosis; assay: Antimycobacterial activity against Mycobacterium tuberculosis H37Rv assessed as reduction in growth measured after 48 hrs by CFU assay; format: functional

SMILES | IC50 [1] [nM] | Activity [2] | fold change (FC) [3] | inhibition [4] | other results
CNC(=O)CCc1cc(-c2ccc(-c3ccc(C(F)(F)F)cc3)cc2)n(-c2ccc(NC(=O)c3cn(C)cn3)cc2)n1 | 180 | Non-toxic | >1 | Active | 
CNC(=O)CCc1cc(-c2ccc(-c3ccc(C(F)(F)F)cc3)cc2)n(-c2ccc(NC(=O)c3ccnc(C)c3)cc2)n1 | 290 | Non-toxic | >1 | Active | inhibition [5]: Active
O=[N+]([O-])c1cn2c(n1)OC[C@@H](OCc1ccc(OC(F)(F)F)cc1)C2 [PRETOMANID] | 400 |  |  |  | 
CNC(=O)CCc1cc(-c2ccc(-c3ccc(C(F)(F)F)cc3)cc2)n(-c2ccc(NC(=O)c3ccncc3)cc2)n1 | 480 | Non-toxic | >1 | Active | inhibition [5]: Active
CNC(=O)CCc1cc(-c2ccc(-c3ccc(C(F)(F)F)cc3)cc2)n(-c2ccc(NC(=O)c3ccc(N)cc3)cc2)n1 | 320 |  | >1 | Active | Activity [6]: Toxic
CNC(=O)CCc1cc(-c2ccc(-c3ccc(C(F)(F)F)cc3)cc2)n(-c2ccc(NC(=O)c3ccncc3Cl)cc2)n1 | 430 | Non-toxic | >1 | Active | 
NNC(=O)c1ccncc1 [ISONIAZID] | 330 |  |  |  | inhibition [7]: Active
CCc1nc2ccc(Cl)cn2c1C(=O)NCc1ccc(N2CCC(c3ccc(OC(F)(F)F)cc3)CC2)cc1 [TELACEBEC] | < 3 |  |  |  | 
CNC(=O)CCc1cc(-c2ccc(-c3ccc(C(F)(F)F)cc3)cc2)n(-c2ccc(NS(=O)(=O)N(C)C)cc2)n1 | 2200 |  |  |  | cytotoxicity at 20 µM [8]: 4%; inhibition [7]: Active; inhibition [9]: Active
NS(=O)(=O)Nc1ccc(-n2nc(C(F)(F)F)cc2-c2ccc3c(ccc4ccccc43)c2)cc1 |  |  |  |  | fold change (FC) [10]: 1
CNC(=O)CCc1cc(-c2ccc(-c3ccc(C(F)(F)F)cc3)cc2)n(-c2ccc(NS(=O)(=O)NC(=O)OC(C)(C)C)cc2)n1 |  |  |  |  | cytotoxicity at 20 µM [8]: 26%; inhibition [7]: Active; inhibition [9]: Active
CNC(=O)CCc1cc(-c2ccc(-c3ccc(C(F)(F)F)cc3)cc2)nn1-c1ccc(NC(=O)c2ccncc2)cc1 | 270 | Non-toxic | >1 | Active | inhibition [5]: Active
COc1nc2ccc(Br)cc2cc1[C@@H](c1ccccc1)[C@@](O)(CCN(C)C)c1cccc2ccccc12 [BEDAQUILINE] | 50 |  |  |  | 
